Experimental data as given in paper PMC8657848, “Developmental Toxicity and Biotransformation of Two Anti-Epileptics in Zebrafish Embryos and Early Larvae” (International Journal of Molecular Sciences, 2021).
Like-named read-outs stand apart in the source and are kept apart here.

Legend:
[1] = Quantification of compound in stock and culture medium relative to nominal concentration (LC-MS); format: physicochemical; conditions: for Percentage of quantified compound concentration relatively to the nominal concentration: CBZ–E-CBZ
Protocol: The control and test mediums were also kept in the same incubator until the last time point of the experiment. The embryo media were renewed every 48 h, to avoid medium acidification and oxygen deprivation. At each medium change and at the last time point of the experiment (Figure 9), the media exposed to the embryos were pooled and kept at −80 °C for further use (n = 3). Moreover, samples from the stock solutions kept at 28.5 °C ± 0.3 °C were also taken at 0 and 120 hpf (n = 3), whereas samples were only taken at 96 hpf for the metabolites medium (E-CBZ and HPPH).

[2] = Microsomal incubation with CBZ and PHE, rat liver microsomes; format: in vitro ADME; conditions: rat adult liver microsomes; data not shown
Protocol: (§1) Moreover, positive and negative controls were included: pooled human liver microsomes (Gibco™, HMMCPL–PL050B, Thermo Fisher Scientific) and Insect Cell Control Supersomes™ (lot number: PL050 C-B, 456201, Corning Incorporated, Corning, NY, USA), respectively. Based on Oziolor et al., microsomal reactions were initiated after adding the substrate solution at a concentration of 100 µM (see Supplementary Table S1) in a mixture of 100 mM K3PO4 buffer (Corning® Gentest™, NY, USA) of pH 7.4, 5% and 1% of NADPH regenerating system reagents A and B, respectively (Corning, Woburn, MA, USA) and 200 µg/mL of microsomal protein, for a total volume of 500 µL. The reactions were performed at 28.5 ± 0.3 °C until the time point of interest. […]
(§2) For the quantification of the metabolites E-CBZ and HPPH, the samples processed were the microsomal incubation reactions (see Section 4.3.2), the zebrafish culture and stock medium (4.2.1) and the zebrafish embryos/larvae extracts (see Section 4.2.3). […] To quantify the concentrations of E-CBZ and HPPH in these samples, standard curves (in duplicate) of 10 concentrations for E-CBZ (0.5–400 ng/mL; see Supplementary Table S1) and HPPH (2–1600 ng/mL; see Supplementary Table S1) were prepared, as were quality controls. […]

[3] = Microsomal incubation with CBZ and PHE, human liver microsomes; format: in vitro ADME; conditions: human adult liver microsomes; data not shown
Protocol: as §1, §2

zebrafish embryos = conditions: cited from earlier work; for Embryos affected, combining teratogenic and lethal effects: after three days of exposure

## NC(=O)N1c2ccccc2C=Cc2ccccc21 [CBZ, carbamazepine]
[1]; Culture medium exposed to embryos/larvae, nominal 31.25 µM, 48 hpf
  Percentage of quantified compound concentration relatively to the nominal concentration: 95.4 ± 16.2%
[1]; Culture medium, nominal 31.25 µM, 96 hpf
  Percentage of quantified compound concentration relatively to the nominal concentration: 101.2 ± 21.7%
[1]; Culture medium, nominal 31.25 µM, 120 hpf
  Percentage of quantified compound concentration relatively to the nominal concentration: 109.6 ± 5.4%
[1]; Culture medium, nominal 85 µM, 48 hpf
  Percentage of quantified compound concentration relatively to the nominal concentration: 110.0 ± 4.8%
[1]; Culture medium, nominal 85 µM, 96 hpf
  Percentage of quantified compound concentration relatively to the nominal concentration: 116.8 ± 4.7%
[1]; Culture medium, nominal 85 µM, 120 hpf
  Percentage of quantified compound concentration relatively to the nominal concentration: 113.9 ± 4.5%
[1]; Culture medium, nominal 250 µM, 48 hpf
  Percentage of quantified compound concentration relatively to the nominal concentration: 113.4 ± 14.1%
[1]; Culture medium, nominal 250 µM, 96 hpf
  Percentage of quantified compound concentration relatively to the nominal concentration: 114.2 ± 2.6%
[1]; Culture medium, nominal 250 µM, 120 hpf
  Percentage of quantified compound concentration relatively to the nominal concentration: 111.5 ± 2.6%
[1]; Stock, nominal 31.25 µM, 0 hpf, average of three replicates
  Percentage of quantified compound concentration relatively to the nominal concentration: 95.6 ± 2.0%
[1]; Stock, nominal 31.25 µM, 120 hpf
  Percentage of quantified compound concentration relatively to the nominal concentration: 101.6 ± 7.7%
[1]; Stock, nominal 85 µM, 0 hpf
  Percentage of quantified compound concentration relatively to the nominal concentration: 81.7 ± 18.7%
[1]; Stock, nominal 85 µM, 120 hpf
  Percentage of quantified compound concentration relatively to the nominal concentration: 90.4 ± 6.6%
[1]; Stock, nominal 250 µM, 0 hpf
  Percentage of quantified compound concentration relatively to the nominal concentration: 92.1 ± 5.3%
[1]; Stock, nominal 250 µM, 120 hpf
  Percentage of quantified compound concentration relatively to the nominal concentration: 98.4 ± 4.6%
[2]
  Decrease of parent compound after 240 min (pilot investigation): no changes
[3]
  Decrease of parent compound after 240 min (pilot investigation): no changes
Zebrafish embryos; 31.25 µM
  Embryos affected, combining teratogenic and lethal effects: less than 20%
Zebrafish embryos; 250 µM
  Embryos affected, combining teratogenic and lethal effects: around 50%
  Percentage of larvae affected at 72 hpf: 48.3 ± 11.5%

## O=C1NC(=O)C(c2ccccc2)(c2ccccc2)N1 [PHE, phenytoin]
[1]; 31.25 µM, stable over time
  Quantified concentration in culture medium lower than the nominal concentration: 20%
[1]; 85 µM, culture medium at 96 and 120 hpf and stock medium at 120 hpf
  Quantified concentration lower than the nominal concentration: around 35%
[1]; 85 µM, stock medium at 0 hpf and culture medium at 48 hpf
  Quantified concentration lower than the expected concentration: around 20%
[1]; 250 µM, stock and culture medium, all time points
  Quantified concentration as percentage of the nominal concentration: ≤ 45%
[1]; visually observed in the stock medium for 85 and 250 µM
  Dissolution / precipitation in EMS: did not dissolve properly in the EMS and/or precipitated in EMS
[2]
  Decrease of parent compound after 240 min (pilot investigation): very slight decrease
[3]
  Decrease of parent compound after 240 min (pilot investigation): No decrease
Zebrafish embryos; 31.25 µM
  Embryos affected, combining teratogenic and lethal effects: less than 20%
Zebrafish embryos; 250 µM
  Embryos affected, combining teratogenic and lethal effects: around 50%
  Percentage of larvae affected at 72 hpf: 45.0 ± 21.8%
